Measured values published in PMC5811606, “Characterization of ^111In-labeled Glucose-Dependent Insulinotropic Polypeptide as a Radiotracer for Neuroendocrine Tumors” (Scientific Reports, 2018).
Like-named read-outs stand apart in the source and are kept apart here.

What was measured:
[1] = system: subcutaneous BHK-GIPR tumors; experiment: Biodistribution study, BHK-GIPR tumor mice; type: in vivo, BALB/c nude mice; details: biodistribution studies in BALB/c nude mice, i.v.
Experimental: (§1) All animal experiments were approved by the Animal Welfare Body of the Radboud University, Nijmegen, The Netherlands and carried out in accordance with their guidelines. Six to eight weeks old, female BALB/c nude mice and C3H mice were purchased from Janvier labs (Le Genest Saint Isle, France). For all in vivo experiments, 6-8 weeks old female BALB/c nude mice were injected subcutaneously in the right shoulder with 0.2 ml of a 2.5 × 10^7 cells/ml suspension of BHK-GIPR transfected cells or with 0.2 ml of a 2.5 × 10^7 cells/ml suspension of NES2Y cells mixed with matrigel (2:1) in the right shoulder. When the tumor reached a diameter of 2-5 mm, mice were randomly divided in groups.
(§2) BALB/c nude mice bearing BHK-GIPR transfected tumors were injected intravenously with approximately 3 MBq (peptide dose 0.2 µg = 0.04 nmol) of [Lys^37(^111In-DTPA)]N-acetyl-GIP1-42 via the tail vein. At various time points after injection (1, 4 and 24 hours), mice were euthanized by CO2/O2 suffocation and blood, tumor and other relevant tissues were dissected, weighed and measured in a well type gamma counter. The percentage injected dose per gram (%ID/g) was calculated for each tissue. To determine whether the GIP1-42 uptake was GIPR mediated, 25 µg of unlabeled GIP1-42 was co-injected in a separate group (n = 5) and mice were euthanized four hours post-injection. BALB/c nude mice bearing NES2Y tumors (n = 5) were injected intravenously with approximately 3 MBq (peptide dose 0.2 µg = 0.04 nmol) of [Lys^37(^111In-DTPA)]N-acetyl-GIP1-42 via the tail vein. One hour after injection, mice were euthanized by CO2/O2 suffocation and blood, tumor and other relevant tissues were dissected, weighed and measured in a well type gamma counter. The percentage injected dose per gram (%ID/g) was determined for each tissue. To determine whether the GIP1-42 uptake was GIPR mediated, 25 µg of unlabeled GIP1-42 was co-injected in a separate group (n = 2) and mice were euthanized one hours post-injection.

[2] = Biodistribution study, BHK-GIPR tumor mice; type: in vivo, BALB/c nude mice; details: female, mouse, iv, total radioactivity, BHK-GIPR tumor BALB/c nude mice, i.v., 0.2 µg, mean n=5; for tissue uptake at 1 h / tissue uptake at 4 h / tissue uptake at 24 h: BALB/c nude
Experimental: as §1, §2

CC[C@H](C)[C@H](NC(=O)[C@H](CO)NC(=O)[C@H](Cc1ccc(O)cc1)NC(=O)[C@H](CC(=O)O)NC(=O)[C@H](CO)NC(=O)[C@@H](NC(=O)[C@H](Cc1ccccc1)NC(=O)[C@@H](NC(=O)CNC(=O)[C@H](CCC(=O)O)NC(=O)[C@H](C)NC(=O)[C@H](Cc1ccc(O)cc1)NC(C)=O)[C@@H](C)O)[C@@H](C)CC)C(=O)N[C@@H](C)C(=O)N[C@@H](CCSC)C(=O)N[C@@H](CC(=O)O)C(=O)N[C@@H](CCCCN)C(=O)N[C@H](C(=O)N[C@@H](Cc1c[nH]cn1)C(=O)N[C@@H](CCC(N)=O)C(=O)N[C@@H](CCC(N)=O)C(=O)N[C@@H](CC(=O)O)C(=O)N[C@@H](Cc1ccccc1)C(=O)N[C@H](C(=O)N[C@@H](CC(N)=O)C(=O)N[C@@H](Cc1c[nH]c2ccccc12)C(=O)N[C@@H](CC(C)C)C(=O)N[C@@H](CC(C)C)C(=O)N[C@@H](C)C(=O)N[C@@H](CCC(N)=O)C(=O)N[C@@H](CCCCN)C(=O)NCC(=O)N[C@@H](CCCCN)C(=O)N[C@@H](CCCCN)C(=O)N[C@@H](CC(N)=O)C(=O)N[C@@H](CC(=O)O)C(=O)N[C@@H](Cc1c[nH]c2ccccc12)C(=O)N[C@@H](CCCCNC(=O)CN(CCN(CCN(CC(=O)O)CC(=O)O)CC(=O)O)CC(=O)O)C(=O)N[C@@H](Cc1c[nH]cn1)C(=O)N[C@@H](CC(N)=O)C(=O)N[C@H](C(=O)N[C@H](C(=O)N[C@@H](CCC(N)=O)C(=O)O)[C@@H](C)O)[C@@H](C)CC)C(C)C)[C@@H](C)CC [[Lys^37(^111In-DTPA)]N-acetyl-GIP1-42, metal not drawn]
blood clearance [1]: cleared from the blood very rapidly
tissue uptake at 1 h ([2]; BHK-GIPR tumor, 0.2 ug, 1 h p.i., read-out: Tumor uptake): 4.69 %ID/g
tissue uptake at 4 h ([2]; BHK-GIPR tumor, 0.2 ug, 4 h p.i., read-out: Tumor uptake): 3.27 %ID/g
tissue uptake at 24 h ([2]; BHK-GIPR tumor, 0.2 ug, 24 h p.i., read-out: Tumor uptake): 2 ± 0.2 %ID/g
tissue uptake at 4 h ([2]; BHK-GIPR tumor, 4 h p.i. + xs (25 µg unlabeled GIP1-42), read-out: Tumor uptake): 0.8 ± 0.2 %ID/g
tissue uptake at 1 h ([2]; blood, 0.2 ug, 1 h p.i., read-out: Blood uptake): 0.248 %ID/g
tissue uptake at 4 h ([2]; blood, 0.2 ug, 4 h p.i., read-out: Blood uptake): 0.045 %ID/g
tissue uptake at 24 h ([2]; blood, 0.2 ug, 24 h p.i., read-out: Blood uptake): 0.017 %ID/g
tissue uptake at 4 h ([2]; blood, 4 h p.i. + xs (25 µg unlabeled GIP1-42), read-out: Blood uptake): 0.031 %ID/g
tissue uptake at 1 h ([2]; duodenum, 0.2 ug, 1 h p.i., read-out: Duodenum uptake): 0.561 %ID/g
tissue uptake at 4 h ([2]; duodenum, 0.2 ug, 4 h p.i., read-out: Duodenum uptake): 0.448 %ID/g
tissue uptake at 24 h ([2]; duodenum, 0.2 ug, 24 h p.i., read-out: Duodenum uptake): 0.378 %ID/g
tissue uptake at 4 h ([2]; duodenum, 4 h p.i. + xs (25 µg unlabeled GIP1-42), read-out: Duodenum uptake): 0.392 %ID/g
tissue uptake at 1 h ([2]; heart, 0.2 ug, 1 h p.i., read-out: Heart uptake): 0.2 %ID/g
tissue uptake at 4 h ([2]; heart, 0.2 ug, 4 h p.i., read-out: Heart uptake): 0.116 %ID/g
tissue uptake at 24 h ([2]; heart, 0.2 ug, 24 h p.i., read-out: Heart uptake): 0.081 %ID/g
tissue uptake at 4 h ([2]; heart, 4 h p.i. + xs (25 µg unlabeled GIP1-42), read-out: Heart uptake): 0.096 %ID/g
tissue uptake at 1 h ([2]; kidney, 0.2 ug, 1 h p.i., read-out: Kidney uptake): 211 %ID/g
tissue uptake at 4 h ([2]; kidney, 0.2 ug, 4 h p.i., read-out: Kidney uptake): 228 %ID/g
tissue uptake at 24 h ([2]; kidney, 0.2 ug, 24 h p.i., read-out: Kidney uptake): 173 %ID/g
tissue uptake at 4 h ([2]; kidney, 4 h p.i. + xs (25 µg unlabeled GIP1-42), read-out: Kidney uptake): 227 %ID/g
tissue uptake at 1 h ([2]; liver, 0.2 ug, 1 h p.i., read-out: Liver uptake): 1.1 %ID/g
tissue uptake at 4 h ([2]; liver, 0.2 ug, 4 h p.i., read-out: Liver uptake): 1.16 %ID/g
tissue uptake at 24 h ([2]; liver, 0.2 ug, 24 h p.i., read-out: Liver uptake): 0.695 %ID/g
tissue uptake at 4 h ([2]; liver, 4 h p.i. + xs (25 µg unlabeled GIP1-42), read-out: Liver uptake): 1.09 %ID/g
tissue uptake at 1 h ([2]; lung, 0.2 ug, 1 h p.i., read-out: Lung uptake): 0.545 %ID/g
tissue uptake at 4 h ([2]; lung, 0.2 ug, 4 h p.i., read-out: Lung uptake): 0.332 %ID/g
tissue uptake at 24 h ([2]; lung, 0.2 ug, 24 h p.i., read-out: Lung uptake): 0.184 %ID/g
tissue uptake at 4 h ([2]; lung, 4 h p.i. + xs (25 µg unlabeled GIP1-42), read-out: Lung uptake): 0.331 %ID/g
tissue uptake at 1 h ([2]; muscle, 0.2 ug, 1 h p.i., read-out: Muscle uptake): 0.135 %ID/g
tissue uptake at 4 h ([2]; muscle, 0.2 ug, 4 h p.i., read-out: Muscle uptake): 0.082 %ID/g
tissue uptake at 24 h ([2]; muscle, 0.2 ug, 24 h p.i., read-out: Muscle uptake): 0.058 %ID/g
tissue uptake at 4 h ([2]; muscle, 4 h p.i. + xs (25 µg unlabeled GIP1-42), read-out: Muscle uptake): 0.068 %ID/g
tissue uptake at 1 h ([2]; pancreas, 0.2 ug, 1 h p.i., read-out: Pancreas uptake): 0.296 %ID/g
tissue uptake at 4 h ([2]; pancreas, 0.2 ug, 4 h p.i., read-out: Pancreas uptake): 0.193 %ID/g
tissue uptake at 24 h ([2]; pancreas, 0.2 ug, 24 h p.i., read-out: Pancreas uptake): 0.137 %ID/g
tissue uptake at 4 h ([2]; pancreas, 4 h p.i. + xs (25 µg unlabeled GIP1-42), read-out: Pancreas uptake): 0.147 %ID/g
tissue uptake at 1 h ([2]; spleen, 0.2 ug, 1 h p.i., read-out: Spleen uptake): 0.603 %ID/g
tissue uptake at 4 h ([2]; spleen, 0.2 ug, 4 h p.i., read-out: Spleen uptake): 0.528 %ID/g
tissue uptake at 24 h ([2]; spleen, 0.2 ug, 24 h p.i., read-out: Spleen uptake): 0.493 %ID/g
tissue uptake at 4 h ([2]; spleen, 4 h p.i. + xs (25 µg unlabeled GIP1-42), read-out: Spleen uptake): 0.519 %ID/g
tissue uptake at 1 h ([2]; stomach, 0.2 ug, 1 h p.i., read-out: Stomach uptake): 0.502 %ID/g
tissue uptake at 4 h ([2]; stomach, 0.2 ug, 4 h p.i., read-out: Stomach uptake): 0.362 %ID/g
tissue uptake at 24 h ([2]; stomach, 0.2 ug, 24 h p.i., read-out: Stomach uptake): 0.258 %ID/g
tissue uptake at 4 h ([2]; stomach, 4 h p.i. + xs (25 µg unlabeled GIP1-42), read-out: Stomach uptake): 0.268 %ID/g
tissue to tissue ratio at 24 h ([2]; tumor and lung, 0.2 ug, 24 h p.i., read-out: Tumor/Lung): 11.3
tissue to tissue ratio at 1 h ([2]; tumor/blood, 0.2 ug, 1 h p.i., read-out: Tumor/Blood): 21.8
tissue to tissue ratio at 4 h ([2]; tumor/blood, 0.2 ug, 4 h p.i., read-out: Tumor/Blood): 77.6
